Measurements taken from patent US20250170090A1, “METHOD FOR PREVENTING OR TREATING DISEASE OR DISORDER ASSOCIATED WITH ANTINEOPLASTIC AGENT” (ONQUALITY PHARMACEUTICALS CHINA LTD., priority 2022, published 2025).
Like-named read-outs stand apart in the source and are kept apart here.

Columns and labels:
[1] = test system: hand-foot syndrome induced by anti-tumor agents; assay: Prevention of hand-foot syndrome induced by anti-tumor agents in rats, NO-NSAID ointment on hind paws (Table 2-2); type: in vivo, SD rats; conditions: Rattus norvegicus, topical, read-out: Control rate; for responders at 1 %: ointment 1% wt; for responders at 3 %: ointment 3% wt
Summary of the method: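 Female SD rats (8 weeks, ~200 g; 10/group) received anti-tumour agents by daily oral gavage in Cremophor EL:ethanol 1:1 diluted ~3× with PBS. NO-NSAID or blank ointment was applied to hind paws once daily, 4 h restrained, then wiped off. Control rate = blank-group minus treated-group hand-foot syndrome incidence.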

[2] = test system: HUVEC cells; assay: CCK-8 cell viability: alleviation of proliferative toxicity of anti-tumor agents on HUVEC cells (Tables 7-1, 7-2); type: cell-based; conditions: for activation at 100 µM: Homo sapiens, 24 h, percentage increase in viable cells vs anti-tumor agent alone, read-out: Response rate % (average)
Summary of the method: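 HUVEC cells were treated with anti-tumor agent (DMSO solvent) alone or combined with NO-NSAID (ethanol or water solvent), and NO-NSAID solvent controls were used for correction. After 24-48 h of culture, viability was read by CCK-8 to derive proliferative toxicity and how much NO-NSAID mitigated it.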

[3] = 120 h, Sorafenib 80 mg/kg once a day, Days 5
[4] = 432 h, Regorafenib 90 mg/kg once a day, Days 18
[5] = Afatinib (10 μM), NO-NSAID 100 μM
[6] = Cabozantinib (5 μM), NO-NSAID 100 μM
[7] = Dabrafenib (10 μM), NO-NSAID 100 μM
[8] = Everolimus (5 μM), NO-NSAID 100 μM
[9] = Infigratinib (15 μM), NO-NSAID 100 μM
[10] = Lapatinib (5 μM), NO-NSAID 100 μM
[11] = Lenvatinib (10 μM), NO-NSAID 100 μM
[12] = Olmutinib (10 μM), NO-NSAID 100 μM
[13] = Regorafenib (5 μM), NO-NSAID 100 μM
[14] = Selumetinib (5 μM), NO-NSAID 100 μM
[15] = Sorafenib (5 μM), NO-NSAID 100 μM
[16] = Sunitinib (5 μM), NO-NSAID 100 μM

Compound: CC(=O)Oc1ccccc1C(=O)OCOC(=O)CCCCCO[N+](=O)[O-] [Compound A3]
- responders at 1 % [1, 3]: 50%
- responders at 3 % [1, 3]: 57.1%
- responders at 1 % [1, 4]: 42.9%
- responders at 3 % [1, 4]: 71.4%
- NO-NSAID response rate % (average) ([2]; Afatinib (10 μM), NO-NSAID 0.1 μM): 15%
- NO-NSAID response rate % (average) ([2]; Afatinib (10 μM), NO-NSAID 1 μM): 24%
- NO-NSAID response rate % (average) [2, 5]: 32%
- NO-NSAID response rate % (average) ([2]; Afatinib (10 μM), NO-NSAID 500 μM): 22%
- NO-NSAID response rate % (average) ([2]; Cabozantinib (5 μM), NO-NSAID 0.1 μM): 14%
- NO-NSAID response rate % (average) ([2]; Cabozantinib (5 μM), NO-NSAID 1 μM): 29%
- NO-NSAID response rate % (average) [2, 6]: 56%
- NO-NSAID response rate % (average) ([2]; Cabozantinib (5 μM), NO-NSAID 500 μM): 24%
- NO-NSAID response rate % (average) ([2]; Dabrafenib (10 μM), NO-NSAID 0.1 μM): 25%
- NO-NSAID response rate % (average) ([2]; Dabrafenib (10 μM), NO-NSAID 1 μM): 30%
- NO-NSAID response rate % (average) [2, 7]: 64%
- NO-NSAID response rate % (average) ([2]; Dabrafenib (10 μM), NO-NSAID 500 μM): 33%
- NO-NSAID response rate % (average) ([2]; Everolimus (5 μM), NO-NSAID 0.1 μM): −8%
- NO-NSAID response rate % (average) ([2]; Everolimus (5 μM), NO-NSAID 1 μM): −8%
- NO-NSAID response rate % (average) [2, 8]: 56%
- NO-NSAID response rate % (average) ([2]; Everolimus (5 μM), NO-NSAID 500 μM): 1%
- activation at 100 µM [2, 5]: 32%
- activation at 100 µM ([2]; Anlotinib (5 μM), NO-NSAID 100 μM): 73%
- activation at 100 µM ([2]; Apatinib (10 μM), NO-NSAID 100 μM): 15%
- activation at 100 µM ([2]; Axitinib (10 μM), NO-NSAID 100 μM): 35%
- activation at 100 µM [2, 6]: 56%
- activation at 100 µM [2, 7]: 64%
- activation at 100 µM ([2]; Dacomitinib (5 μM), NO-NSAID 100 μM): 32%
- activation at 100 µM ([2]; Encorafenib (5 μM), NO-NSAID 100 μM): 28%
- activation at 100 µM ([2]; Erdafitinib (10 μM), NO-NSAID 100 μM): 59%
- activation at 100 µM [2, 8]: 56%
- activation at 100 µM ([2]; Famitinib (5 μM), NO-NSAID 100 μM): 39%
- activation at 100 µM ([2]; Fruquintinib (10 μM), NO-NSAID 100 μM): 22%
- activation at 100 µM ([2]; Gefitinib (10 μM), NO-NSAID 100 μM): 26%
- activation at 100 µM [2, 9]: 28%
- activation at 100 µM [2, 10]: 40%
- activation at 100 µM [2, 11]: 69%
- activation at 100 µM [2, 12]: 57%
- activation at 100 µM [2, 13]: 55%
- activation at 100 µM [2, 14]: 49%
- activation at 100 µM [2, 15]: 3%
- activation at 100 µM [2, 16]: 50%
- activation at 100 µM ([2]; Vemurafenib (5 μM), NO-NSAID 100 μM): 80%
- NO-NSAID response rate % (average) ([2]; Infigratinib (15 μM), NO-NSAID 0.1 μM): 18%
- NO-NSAID response rate % (average) ([2]; Infigratinib (15 μM), NO-NSAID 1 μM): 28%
- NO-NSAID response rate % (average) [2, 9]: 28%
- NO-NSAID response rate % (average) ([2]; Infigratinib (15 μM), NO-NSAID 500 μM): 20%
- NO-NSAID response rate % (average) ([2]; Lapatinib (5 μM), NO-NSAID 0.1 μM): 20%
- NO-NSAID response rate % (average) ([2]; Lapatinib (5 μM), NO-NSAID 1 μM): 20%
- NO-NSAID response rate % (average) [2, 10]: 40%
- NO-NSAID response rate % (average) ([2]; Lapatinib (5 μM), NO-NSAID 500 μM): 19%
- NO-NSAID response rate % (average) ([2]; Lenvatinib (10 μM), NO-NSAID 0.1 μM): 21%
- NO-NSAID response rate % (average) ([2]; Lenvatinib (10 μM), NO-NSAID 1 μM): 14%
- NO-NSAID response rate % (average) [2, 11]: 69%
- NO-NSAID response rate % (average) ([2]; Lenvatinib (10 μM), NO-NSAID 500 μM): 20%
- NO-NSAID response rate % (average) ([2]; Olmutinib (10 μM), NO-NSAID 0.1 μM): 27%
- NO-NSAID response rate % (average) ([2]; Olmutinib (10 μM), NO-NSAID 1 μM): 35%
- NO-NSAID response rate % (average) [2, 12]: 57%
- NO-NSAID response rate % (average) ([2]; Olmutinib (10 μM), NO-NSAID 500 μM): 23%
- NO-NSAID response rate % (average) ([2]; Regorafenib (5 μM), NO-NSAID 0.1 μM): 32%
- NO-NSAID response rate % (average) ([2]; Regorafenib (5 μM), NO-NSAID 1 μM): 37%
- NO-NSAID response rate % (average) [2, 13]: 55%
- NO-NSAID response rate % (average) ([2]; Regorafenib (5 μM), NO-NSAID 500 μM): 26%
- NO-NSAID response rate % (average) ([2]; Selumetinib (5 μM), NO-NSAID 0.1 μM): 28%
- NO-NSAID response rate % (average) ([2]; Selumetinib (5 μM), NO-NSAID 1 μM): 53%
- NO-NSAID response rate % (average) [2, 14]: 49%
- NO-NSAID response rate % (average) ([2]; Selumetinib (5 μM), NO-NSAID 500 μM): 34%
- NO-NSAID response rate % (average) ([2]; Sorafenib (5 μM), NO-NSAID 0.1 μM): 13%
- NO-NSAID response rate % (average) ([2]; Sorafenib (5 μM), NO-NSAID 1 μM): 7%
- NO-NSAID response rate % (average) [2, 15]: 3%
- NO-NSAID response rate % (average) ([2]; Sorafenib (5 μM), NO-NSAID 500 μM): 29%
- NO-NSAID response rate % (average) ([2]; Sunitinib (5 μM), NO-NSAID 0.1 μM): 10%
- NO-NSAID response rate % (average) ([2]; Sunitinib (5 μM), NO-NSAID 1 μM): 37%
- NO-NSAID response rate % (average) [2, 16]: 50%
- NO-NSAID response rate % (average) ([2]; Sunitinib (5 μM), NO-NSAID 500 μM): 7%
